The values below come from patent US7048919B2, “Osteoclast secreted chemokine and uses thereof” (The UAB Research Foundation, priority 2000, dated 2006).

Assay [1] deals with avian osteoclasts. The experiment in a line: mim-1 secretion by osteoclasts, Western analysis of lysates and media. It is filed as cell-based. To be noted: for effect on secretion of mim-1: PMA stimulated osteoclasts. The procedure: Avian osteoclasts were cultured as described in FIGS. 1 and 2; cells were washed with ice cold PBS and lysed. Culture media was collected from each treatment and boiled in sample buffer. Protein (25 μg) from cell lysates (Lysates) and equal aliquots of the corresponding media (Media) were resolved on 10% SDS-PAGE, transferred to PVDF membrane and Western blotted for mim-1. Molecular weights (kilodaltons) are indicated on the left. Representative of n=2 separate experiments.
Avian osteoclasts were cultured with bone (1 mg/well) for the indicated times in the presence of 0.3 μM PMA. Osteoclasts were washed with ice-cold phosphate buffered saline, lysed and 25 μg cell lysates resolved on 10% SDS-PAGE, transferred to PVDF membrane and probed with for mim-1 as described in the legend to FIG. 4. Data is representative of two separate experiments.
Avian osteoclasts are washed with phosphate buffered saline (PBS) and lysed as previously described (20). The lysis buffer (Buffer A) is 50 mM Tris, pH 7.0, 250 mM sucrose, 1 mM EGTA, 1 mM EDTA, 1 mM ammonium molybdate, 50 mM NaF, 1 mM orthovanadate, 0.5 μM okadaic acid, 5 mM benzamidine, 0.1 mM PMSF, 0.05 mg/ml pepstatin, 0.06 mg/ml leupeptin, 0.018 trypsin inhibitor units of aprotinin/ml, 10% glycerol and 1% Triton X100. Cells were solubilized 1 hr with rotation and the Triton insoluble material removed by centrifugation at 15,000×g for 5 min at 4° C. Lysates (25 μg protein) were resolved on 10% SDS-PAGE. Protein was transferred under standard conditions (21) to PVDF membranes. Mim-1 was detected on Western analysis using a polyclonal antibody generated against a trpE-mim-1 fusion protein (15) (generously provided by Scott Ness, University of New Mexico) by enhanced chemiluminescence. Protein concentrations were determined by the Bio Rad DC assay (Bio Rad, Richmond, Calif.).
To determine the effects of PMA on osteoclast secretion of mim-1 and its relation to bone resorption, osteoclasts were cultured as described above in the presence of the indicated concentrations of PMA and aliquots of media removed at the indicated times (FIG. 4) and the level of mim-1 determined b y Western analysis. As bone resorption was stimulated (see FIG. 1), mim-1 dercreased in the cell lysate (FIG. 4, left, Lysates) and increased in the culture, media (FIG. 4, right, Media).

The subject of assay [2] is avian osteoclasts. The experiment in a line: Osteoclastic bone resorption assay (3H proline release from labeled bone). The class given is cell-based, avian (white Leghorn hens). To be noted: for effect on PMA stimulated increase in bone resorption: PMA stimulated osteoclasts. The procedure: Bone resorption assays using 150 μg labeled bone were cultured for four days in the presence of increasing concentrations of PMA. Resorption activity was quantified by measuring ^3H proline released to the media. Data represent the mean +/− SEM of n=5 experiments each performed in quadruplicate.
Avian osteoclasts (from egg-laying white Leghorn hens) were utilized because gram quantities of pure osteoclasts are readily obtained. Avian osteoclasts (>10^7 cells) were isolated as previously described (16). Laying hens on a limited calcium diet produce massive numbers of osteoclasts to meet the calcium requirement for eggshell production. The endosteum of such birds, is >50% osteoclasts by mass. Medullary bone is scraped from the endosteum into calcium- and magnesium-free phosphate-buffered saline (PBS) at 4° C. Cells are separated from matrix by washing through 100 μm nylon filters and sedimented through 70% newborn calf serum. Osteoclasts purified by density gradient sedimentation, result in preparations in which osteoclasts represent ˜75–90% of viable cells. Following sedimentation, macrophages represent <2% of the cell mass. For experiments requiring homogeneous osteoclasts the cells purified by serum sedimentation are then affinity purified b y attachment to bone fragments and then resedimented 24 hrs later, eliminating essentially all but viable, bone-attached osteoclasts (17).
L-[^3H]-proline-labeled devitalized bone is used as Substrate in the avian osteoclast resorption assay. This substrate has the advantages of reflecting removal of both the mineral and organic phases of bone, and is resistant to artifacts due to physicochemical exchange (e.g. media acidification (16)). Weanling rats (40–60 g) are injected with 1 mCi of L-[2,3,4,5−^3H]-proline, >100 Ci/mmol, on alternate days for 10 days. Rats are sacrificed on day 12 and bone recovered by dissection. After washing, the bone is dried in a desiccator at 42° C. for 7 days. Labeled 20–40 μm bone fragments are obtained by grinding the bone in a ball bearing mill and sieving to size.
Osteoclasts are plated at 2–3×10^3 cells/well on 24 well plates with 100 μg of labeled 20–40 μm ^3H labeled bone fragments. To avoid possible contamination (due to fusing macrophages or growth of fibroblast/osteoblast cells) bone resorption is measured after 4 days. Osteoclasts rapidly (˜4 hrs) attach to and begin to degrade the bone fragments, releasing label into the media. Bone degradation is determined by measuring label released to the media. […] The ^3H proline assay is also resistant to pH-dependent artifacts and has less inter-assay variability than pi t assays (17–19). Activity, with 100 μg bone fragments, is linear over 5–7 days (16).

The next assay has as its system calmodulin. Description: Calmodulin protein levels in osteoclasts. It is filed as cell-based, avian. To be noted: for calmodulin protein levels: PMA treated osteoclasts.

SMILES strings stand for the structures. “Also recorded” adds a separate entry of the source.

On to `CN1CCN(CCCN2c3ccccc3Sc3ccc(C(F)(F)F)cc32)CC1` [trifluoperazine], for which, in the assay on avian osteoclasts [1], the “effect on secretion of mim-1” value is listed as “did not inhibit”. Also, the “effect on PMA stimulated increase in bone resorption” value in the assay with avian osteoclasts [2] was “inhibited”.
As to `CCCCCCCCCCCCCC(=O)O[C@@H]1[C@@H](C)[C@@]2(O)[C@@H](C=C(CO)C[C@]3(O)C(=O)C(C)=C[C@@H]23)[C@@H]2C(C)(C)[C@]12OC(C)=O` [PMA, phorbol myristate acetate], the “mim-1 in osteoclast cell lysates” value in the assay with avian osteoclasts [1] (0.3 μM PMA, 24 hours) was “substantially reduced”. Besides, the “secretion of mim-1 by osteoclasts” value with avian osteoclasts [1] (increasing concentrations of PMA) is listed as “rapidly increased; also recorded: stimulated in a PMA concentration dependent manner”. Also, the EC50 in the assay with avian osteoclasts [2] (Osteoclast, 96 h, read-out: K0.5 of stimulation of bone resorption) fell in the range of 0.1 to 0.3 µM. Also, in the assay on avian osteoclasts [2] (isolated avian osteoclasts, 4 days, 3H proline released to media), the “stimulation of bone resorption by isolated osteoclasts” value worked out at 4 fold. Moreover, the calmodulin protein levels entry in the assay with calmodulin is recorded as “increase in calmodulin protein levels”; with calmodulin (listed as Phorbol myristate acetate), “dose dependent increase”.
Turning to `CC/C(=C(\c1ccccc1)c1ccc(OCCN(C)C)cc1)c1ccccc1` [tamoxifen], the “effect on secretion of mim-1” value in the assay with avian osteoclasts [1] was “did not inhibit”. In the assay on avian osteoclasts [2], the “effect on PMA stimulated increase in bone resorption” value is “inhibited”. In the assay with calmodulin (PMA stimulated osteoclasts), the “effect on PMA dependent increase in calmodulin levels” value is recorded as “inhibit”.
